Measurements from ChEMBL document CHEMBL1821720, “Discovery and hit-to-lead optimization of novel allosteric glucokinase activators” (Bioorg Med Chem Lett, 2011).

Experiments:
[1] = target: T1, Hexokinase-4 (Homo sapiens) (UniProt P35557); assay: Activation of human recombinant glucokinase expressed in Escherichia coli coexpressing G6PDH at 10 uM using 20 mM glucose measured as ratio of enzyme activation in treated to untreated control by G6PDH coupled continuous spectrophotometric assay
T1 sequence (whole entry): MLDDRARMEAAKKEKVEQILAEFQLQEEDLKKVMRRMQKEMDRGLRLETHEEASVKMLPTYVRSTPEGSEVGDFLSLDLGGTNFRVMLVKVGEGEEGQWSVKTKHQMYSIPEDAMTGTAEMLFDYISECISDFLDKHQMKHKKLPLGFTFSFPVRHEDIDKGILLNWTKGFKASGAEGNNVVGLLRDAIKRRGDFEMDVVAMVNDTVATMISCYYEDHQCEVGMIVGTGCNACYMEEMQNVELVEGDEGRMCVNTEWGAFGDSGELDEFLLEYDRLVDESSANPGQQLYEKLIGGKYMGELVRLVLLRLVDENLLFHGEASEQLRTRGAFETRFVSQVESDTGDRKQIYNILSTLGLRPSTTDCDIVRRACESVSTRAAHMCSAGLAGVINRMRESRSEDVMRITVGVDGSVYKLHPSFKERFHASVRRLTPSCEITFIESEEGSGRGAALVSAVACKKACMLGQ

[2] = target: T1, Hexokinase-4 (Homo sapiens); assay: Activation of human recombinant glucokinase expressed in Escherichia coli coexpressing G6PDH at 10 uM using 5 mM glucose by G6PDH coupled continuous spectrophotometric assay relative to Ro-28-1675
[3] = target: T1, Hexokinase-4 (Homo sapiens); assay: Activation of human recombinant glucokinase expressed in Escherichia coli coexpressing G6PDH at 10 uM using 5 mM glucose measured as ratio of enzyme activation in compound treated to Ro-28-1675 by G6PDH coupled continuous spectrophotometric assay
[4] = target: T1, Hexokinase-4 (Homo sapiens); assay: Activation of human recombinant glucokinase expressed in Escherichia coli coexpressing G6PDH at 10 uM using 5 mM glucose measured as ratio of enzyme activation in treated to untreated control by G6PDH coupled continuous spectrophotometric assay
[5] = target: T1, Hexokinase-4 (Homo sapiens); assay: Activation of human recombinant glucokinase expressed in Escherichia coli coexpressing G6PDH at 10 uM using 20 mM glucose measured as ratio of enzyme activation in compound treated to Ro-28-1675 by G6PDH coupled continuous spectrophotometric assay
[6] = target: T1, Hexokinase-4 (Homo sapiens); assay: Activation of human recombinant glucokinase expressed in Escherichia coli coexpressing G6PDH at 10 uM using 20 mM glucose by G6PDH coupled continuous spectrophotometric assay relative to Ro-28-1675

Row | Compound | Ratio [1] | Activity [2] [%] | Ratio [3] | Ratio [4] | Ratio [5] | Activity [6] [%]
1 | COC(=O)c1ccccc1-c1cc(C(=O)Nc2nc3c(s2)CCC3)c(C)o1 | 1.1 |  | 0.098 | 1.36 | 0.054 | 
2 | O=C(Nc1nc2c(s1)CCCC2)C1CCOC1 (centres undefined) | 0.93 |  | -0.006 | 0.98 | -0.041 | 
3 | Cc1oc(-c2ccccc2C(N)=O)cc1C(=O)Nc1nc2c(s1)CCC2 | 1.58 |  | 0.34 | 2.29 | 0.418 | 
4 | COC(=O)c1ccc(NC(=O)c2cc(C)oc2C)nc1 | 1.19 |  | 0.076 | 1.33 | 0.114 | 
5 | CCc1oc(-c2ccccc2C(C)=O)cc1C(=O)Nc1nc2c(s1)CCCC2 | 1.25 |  | 0.278 | 1.89 | 0.194 | 
6 | CC(=O)c1ccccc1-c1cc(C(=O)Nc2nc3c(s2)CCC3)cs1 | 1.45 |  | 0.274 | 2.02 | 0.296 | 
7 | CCc1oc(-c2ccccc2S(C)(=O)=O)cc1C(=O)Nc1nc2c(s1)CCC2 | 1.39 |  | 0.586 | 2.92 | 0.343 | 

Continued, values first:

Row | Ratio [1] | Activity [2] [%] | Ratio [3] | Ratio [4] | Ratio [5] | Activity [6] [%] | Compound
8 | 1.71 | 66 | 0.66 | 3.52 | 0.627 | 63 | CC(=O)c1ccccc1-c1cc(C(=O)Nc2nc3c(s2)CCC3)c(C)s1
9 | 1.8 | 69 | 0.714 | 3.34 | 0.713 |  | Cc1sc(-c2ccccc2C(N)=O)cc1C(=O)Nc1nc2c(s1)CCC2
10 | 1.42 | 20 | 0.219 | 1.88 | 0.247 | 20 | Cc1cc(C(=O)Nc2nc3c(s2)CCC3)c(C)o1
11 | 1.37 | 20 | 0.312 | 2.22 | 0.231 | 20 | Cc1cc(C(=O)Nc2nc3c(s2)CCC3)c(C)s1
12 | 0.99 |  | 0.015 | 1.06 | -0.003 |  | CC(=O)c1cc(C(=O)Nc2nc3c(s2)CCC3)c(C)o1
13 | 0.96 |  | 0.004 | 1.01 | -0.025 |  | Cc1noc(C)c1C(=O)Nc1nc2c(s1)CCCC2
14 | 1.92 | 69 | 0.69 | 3.7 | 0.736 | 69 | CCc1sc(-c2ccccc2C(N)=O)cc1C(=O)Nc1nc2c(s1)CCC2
15 | 1.06 |  | 0.022 | 1.11 | 0.036 |  | Cc1cc(C(=O)Nc2nc3c(s2)CCCC3)no1
